According to PMC10035389, “Safety, Tolerability, and Pharmacokinetics of TAK-931, a Cell Division Cycle 7 Inhibitor, in Patients with Advanced Solid Tumors: A Phase I First-in-Human Study” (Cancer Research Communications, 2022):

Tested on: patients with advanced solid tumors
Assay: Dose-limiting toxicities, MTD and RP2D determination (BLRM-guided dose escalation)
Assay type: in vivo, human
Description: This was a phase I, open-label, dose-escalation study of single-agent TAK-931. Dose escalation of TAK-931 was cohort based with an adaptive design using Bayesian logistic regression modeling (BLRM) with pharmacokinetic guidance. BLRM also guided MTD estimation from the second dose. Patients were enrolled in one of four dosing schedules (A, B, D, or E; Supplementary Fig. S1) to receive TAK-931. Two additional schedules were planned (C and F) but no patients were enrolled. Schedule A included an initial accelerated escalation phase. TAK-931 was administered once daily for 14 days in 21-day cycles starting at 30 mg, which doubled until a cycle 1 dose-limiting toxicity (DLT) was observed, when 2 patients experienced grade ≥2 treatment-related toxicity, or when maximum geometric mean plasma concentration (Cmax) for the cohort reached or exceeded 800 ng/mL [threshold for off-target adverse effects (hypotension) in animal toxicology studies]; then dose escalation transitioned to modified Fibonacci escalation steps. In schedule B (based on experience with schedule A), patients received TAK-931 once daily or twice daily for 7 days on, 7 days off in a 28-day cycle starting at 60 mg. In schedule D, patients received TAK-931 once daily starting at 20 mg in 21-day cycles; BLRM was not applied but further adjustments were dependent on observed safety, pharmacokinetics, and pharmacodynamics. In schedule E, patients received TAK-931 once daily for 2 days on, 5 days off starting at 100 mg in 21-day cycles. A safety expansion was permitted once MTD had been determined. Prophylactic growth factors were permitted in all schedules to manage severe and/or febrile neutropenia. TAK-931 treatment continued until unacceptable toxicity, disease progression, or patient withdrawal.
DLTs included: cycle 1 grade ≥3 hematologic and non-hematologic events or grade 2 non-hematologic events considered by the investigator to be TAK-931-related, grade 2 ejection fraction decrease, >2 weeks delay in initiating cycle 2 (1 week for schedules D and E), and >50% TAK-931 dose reduction in cycle 1 due to treatment-related adverse events (AEs; see Supplementary Materials and Methods for full DLT criteria). Toxicity was evaluated by NCI Common Terminology Criteria for Adverse Events (version 4.03). Tumor response was measured using the RECIST (version 1.1) ([16]). Serial blood samples for pharmacokinetic analysis were collected during cycle 1 on days 1 and 7 (schedule B), 1 and 8 (schedules A and D), or 1 and 9 (schedule E). Pharmacokinetic parameters were estimated from concentration–time profiles using noncompartmental methods with WinNonlin® Phoenix™ version 8.1 (Certara, Princeton, NJ). pMCM2 was detected semiquantitatively by IHC of histologic sections of formalin-fixed, paraffin-embedded skin and tumor biopsies using anti-pMCM2 (3378-1, Epitomics Inc.; ref. [15]). Quantitative image analysis determined pMCM2 levels as “histologic score nuclei (H-score).” Skin punch biopsies (2–4 mm) were obtained during screening or predose on cycle 1, day 1 and for patients in schedules A, B, and D, postdose on any drug dosing day after 3 consecutive dosing days in cycle 1. A postdose skin biopsy was obtained on day 9 in schedule E. Fresh tumor biopsy pairs were collected predose and postdose on any dosing day after the completion of 3 consecutive dosing days in cycle 1 from patients who received doses considered to have biological effect.
A dose-limiting toxicity (DLT) was defined as any of the following events that occurred during cycle 1 and were considered by the investigator to be related to TAK-931:
Grade 4 neutropenia (ANC <500 cells/mm^3) lasting >7 consecutive days; if myeloid growth factors were used, the event was considered a DLT irrespective of the duration
Grade ≥3 neutropenia (ANC <1000 cells/mm^3) with fever and/or infection, where fever was defined as a single temperature of >38.3°C or sustained temperature of ≥38°C for >1 hour […]

Cc1[nH]ncc1-c1cc2nc([C@@H]3CC4CCN3CC4)[nH]c(=O)c2s1 [TAK-931, simurosertib]
Recommended phase II dose (once daily days 1–14 in 21-day cycles): 50 mg
Patients with DLTs (grade 4 neutropenia) (schedule A): 2 patients
Patients with DLT of grade 4 neutropenia lasting >3 days (schedule A, 60 mg): 2 of 3
Maximum tolerated dose (MTD) (schedule A: once daily days 1–14 of 21-day cycle): 50 mg
Patients with DLT of grade 3 febrile neutropenia (schedule B): 3 n
Patients with DLT of grade 4 neutropenia (schedule B): 1 n
Patients with DLTs (schedule B): 4 patients
Patients with DLT of grade 3 febrile neutropenia (schedule B, 80 mg): 2 of 9
Patients with DLT of grade 4 neutropenia lasting >7 days (schedule B, 100 mg): One of 6
Patients with DLT of grade 3 febrile neutropenia (schedule B, 120 mg): one of six
Maximum tolerated dose (MTD) (schedule B: days 1–7 and 15–21 of 28-day cycle): 100 mg
Patients with DLT of grade 4 neutropenia (schedule D, 40 mg): 1 patient
Patients with DLT of grade 3 febrile neutropenia (schedule E, 150 mg): a second patient
Patients with DLT of grade 4 neutropenia (schedule E, 150 mg): 1 patient
